Results from patent US9757385B2, “Method of treating leukemia using pharmaceutical formulation containing thienotriazolodiazepine compounds” (ONCOETHIX GmbH, priority 2013, dated 2017).
Structures can show the parent of a compound that is named as a salt.

Tests used:
HDAC = details: cited from earlier work
FKBP12 = FKBP12 (Homo sapiens, UniProt P62942); details: mTOR inhibitor of FKBP12; cited from earlier work
HDAC3 = HDAC3 (Homo sapiens, UniProt O15379); details: cited from earlier work
PI3Kβ (p110β) = PI3Kβ (p110β) (Homo sapiens, UniProt P42338); details: cited from earlier work
PI3Kγ (p110γ) = PI3Kγ (p110γ) (Homo sapiens, UniProt P48736); details: cited from earlier work
mTOR = mTOR (Homo sapiens, UniProt P42345); details: cited from earlier work
Reh cells = details: in Reh cells; cited from earlier work
MOLT-4 cells = details: in MOLT-4 cells; cited from earlier work
PI3K/mTOR = details: dual PI3K/mTOR inhibitor; cited from earlier work
[1] = tested on: compound (1-1) sensitive cell lines (HL60, U937 and Jurkat); assay: Cell cycle analysis and apoptosis induction; format: cell-based, human
Experimental: (§1) Four established human cell lines derived from acute (HL60, U937), chronic (K562) myeloid leukemia, and acute lymphoblastic leukemia (Jurkat) were treated with increasing compound (1-1) doses. MTT assays were performed after 72 h exposure. GI50 and Emax values were calculated with the equation for sigmoidal dose response using Prism 5.00. Results are the mean±95% CI of at least 3 independent experiments performed in triplicate. […] Protein levels were analyzed by Western Blot using commercial antibodies. For cell cycle analysis and apoptosis induction, cells were stained with PI or Annexin V respectively, and analyzed using a FACScan flow cytometer. RT-PCR was performed using Fast SYBR Green Master Mix on a StepOnePlus Real-Time PCR System. Cell cycle, apoptosis induction and qRT-PCR results are the mean±SD of at least 3 independent experiments, where *p<0.05, **p<0.001 and ***p<0.0001 versus control cells (0.1% DMSO), employing Anova then Dunnett's Multiple Comparison Test. Compound (1-1) combination studies were performed in cell lines exposed for 48 h to increasing doses of compound (1-1) alone or in combination several conventional anti-leukemic drugs, such as epigenetic modulators, steroids, m-TOR inhibitors and classical cytotoxic agents, and assessed using the Chou & Talalay method. For the sequential combination schemes, cell lines were exposed to azacytidine or panobinostat for 48 or 72 h, washed with drug-free medium and then treated with compound (1-1) for 24 or 48 h. The Combination Index (CI) was determined by median effect plot analysis using CalcuSyn software. CI<1 reflects synergy, CI=1 additivity and CI>1 antagonist effects. Results represent the median and range of 4 independent experiments performed in triplicate.

[2] = tested on: HL60, U937, Jurkat and K562; assay: Combination Index, Chou & Talalay median effect analysis; format: cell-based, human; details: OTX015-sensitive and resistant leukemic cells lines
c-MYC [3] = assay: c-MYC mRNA (RT-PCR) and protein (Western Blot) in sensitive cell lines; format: cell-based, human
Experimental: (§2) MTT assays were performed after 72 hours exposure. Protein levels were analyzed by Western Blot using commercial antibodies. RNA was extracted using the Qiagen RNAEasy and RT-PCR was performed using Fast SYBR Green on a StepOnePlus Real-Time PCR System. Combination effects were evaluated in four cell lines (HL60, U937, Jurkat and K562); compound (1-1) was administered with daunorubicin, azacytidine, dexamethasone, cytarabine or methotrexate. The 48 h Combination Index (CI) was determined by median effect plot analysis using CalcuSyn software expressed as the median and range of CI values among cell lines (Chou & Talalay analysis). CI<1 reflects synergy effects, CI=1 reflects additivity and CI>1 reflects antagonist effects.
(§3) Four established human cell lines derived from acute (HL60, U937), chronic (K562) myeloid leukemia, and acute lymphoblastic leukemia (Jurkat) were treated with increasing compound (1-1) doses. MTT assays were performed after 72 h exposure. GI50 and Emax values were calculated with the equation for sigmoidal dose response using Prism 5.00. […] Protein levels were analyzed by Western Blot using commercial antibodies. For cell cycle analysis and apoptosis induction, cells were stained with PI or Annexin V respectively, and analyzed using a FACScan flow cytometer. […] The Combination Index (CI) was determined by median effect plot analysis using CalcuSyn software. […]

c-MYC [4] = assay: c-MYC RNA and protein in resistant cell line K562; format: cell-based, human
Experimental: as §2, §3

[5] = tested on: K-562, NALM-1, CCRF-CEM, MOLT-3 and -4; assay: MTT assay, anti-proliferative effect, rest of the panel; format: cell-based; details: Homo sapiens; the rest of the eight cell lines, 72-h exposure
Experimental: as §2

BRD2 and BRD4 = BRD2 and BRD4 mRNA and protein in Jurkat cells; format: cell-based, human
U937 = assay: MTT assay, anti-proliferative effect; format: cell-based; details: Homo sapiens, U-937; U937, 72-h exposure; range given for HL60, U937 and Jurkat together
Experimental: as §2
as §1, with “Cell cycle, apoptosis induction and qRT-PCR results are the mean±SD of at least 3 independent experiments, where *p<0.05, **p<0.001 and ***p<0.0001 versus control cells (0.1% DMSO), employing Anova then Dunnett's Multiple Comparison Test.” left out, “For the sequential combination schemes, cell lines were exposed to azacytidine or panobinostat for 48 or 72 h, washed with drug-free medium and then treated with compound (1-1) for 24 or 48 h.” left out, “CI<1 reflects synergy, CI=1 additivity and CI>1 antagonist effects. Results represent the median and range of 4 independent experiments performed in triplicate.” left out

Jurkat = assay: MTT assay, anti-proliferative effect; format: cell-based; details: Homo sapiens, 72-h exposure, range given for HL60, U937 and Jurkat together
Experimental: as §2
as §1, with “Cell cycle, apoptosis induction and qRT-PCR results are the mean±SD of at least 3 independent experiments, where *p<0.05, **p<0.001 and ***p<0.0001 versus control cells (0.1% DMSO), employing Anova then Dunnett's Multiple Comparison Test.” left out, “For the sequential combination schemes, cell lines were exposed to azacytidine or panobinostat for 48 or 72 h, washed with drug-free medium and then treated with compound (1-1) for 24 or 48 h.” left out, “CI<1 reflects synergy, CI=1 additivity and CI>1 antagonist effects. Results represent the median and range of 4 independent experiments performed in triplicate.” left out

HL60 = assay: MTT assay, anti-proliferative effect; format: cell-based; details: Homo sapiens, HL-60; HL60, 72-h exposure; range given for HL60, U937 and Jurkat together
Experimental: as §2
as §1, with “Cell cycle, apoptosis induction and qRT-PCR results are the mean±SD of at least 3 independent experiments, where *p<0.05, **p<0.001 and ***p<0.0001 versus control cells (0.1% DMSO), employing Anova then Dunnett's Multiple Comparison Test.” left out, “For the sequential combination schemes, cell lines were exposed to azacytidine or panobinostat for 48 or 72 h, washed with drug-free medium and then treated with compound (1-1) for 24 or 48 h.” left out, “CI<1 reflects synergy, CI=1 additivity and CI>1 antagonist effects. Results represent the median and range of 4 independent experiments performed in triplicate.” left out

[6] = tested on: Akt phosphorylation on S473; details: cited from earlier work
[7] = tested on: Akt phosphorylation on T308; details: cited from earlier work
[8] = sensitive leukemic cells, 48 h exposure to 500 nM (Example 8)

Sequence of PI3Kβ (p110β) (P42338 whole entry, species assumed): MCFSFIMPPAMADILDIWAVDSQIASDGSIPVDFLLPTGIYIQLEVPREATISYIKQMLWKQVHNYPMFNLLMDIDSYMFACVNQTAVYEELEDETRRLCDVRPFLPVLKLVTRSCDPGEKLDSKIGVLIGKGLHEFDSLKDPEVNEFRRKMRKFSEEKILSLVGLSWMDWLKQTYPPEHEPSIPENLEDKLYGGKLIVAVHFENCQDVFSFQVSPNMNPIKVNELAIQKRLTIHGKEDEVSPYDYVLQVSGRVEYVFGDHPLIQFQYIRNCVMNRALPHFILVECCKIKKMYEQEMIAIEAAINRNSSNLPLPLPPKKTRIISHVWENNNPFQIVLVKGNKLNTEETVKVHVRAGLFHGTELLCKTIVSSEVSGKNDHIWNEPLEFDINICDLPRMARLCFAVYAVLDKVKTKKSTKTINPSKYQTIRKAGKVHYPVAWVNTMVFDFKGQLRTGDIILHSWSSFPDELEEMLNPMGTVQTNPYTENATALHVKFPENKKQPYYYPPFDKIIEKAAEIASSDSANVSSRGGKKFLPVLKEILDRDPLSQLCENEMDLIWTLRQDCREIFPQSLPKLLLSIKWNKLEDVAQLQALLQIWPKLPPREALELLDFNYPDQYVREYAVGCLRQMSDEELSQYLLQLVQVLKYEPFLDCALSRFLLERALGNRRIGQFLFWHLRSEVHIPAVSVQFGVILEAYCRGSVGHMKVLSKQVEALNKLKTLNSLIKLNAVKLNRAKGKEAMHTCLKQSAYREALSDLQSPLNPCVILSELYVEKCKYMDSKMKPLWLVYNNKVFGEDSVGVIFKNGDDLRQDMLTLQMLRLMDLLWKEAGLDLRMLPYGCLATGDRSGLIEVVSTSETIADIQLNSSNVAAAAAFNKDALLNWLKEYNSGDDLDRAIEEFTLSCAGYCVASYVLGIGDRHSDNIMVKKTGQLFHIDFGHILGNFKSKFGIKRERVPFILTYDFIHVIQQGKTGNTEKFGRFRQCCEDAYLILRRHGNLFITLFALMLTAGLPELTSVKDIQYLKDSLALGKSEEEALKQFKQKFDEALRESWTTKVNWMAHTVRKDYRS
Sequence of PI3Kβ (p110β) (P27986 whole entry partner, species assumed): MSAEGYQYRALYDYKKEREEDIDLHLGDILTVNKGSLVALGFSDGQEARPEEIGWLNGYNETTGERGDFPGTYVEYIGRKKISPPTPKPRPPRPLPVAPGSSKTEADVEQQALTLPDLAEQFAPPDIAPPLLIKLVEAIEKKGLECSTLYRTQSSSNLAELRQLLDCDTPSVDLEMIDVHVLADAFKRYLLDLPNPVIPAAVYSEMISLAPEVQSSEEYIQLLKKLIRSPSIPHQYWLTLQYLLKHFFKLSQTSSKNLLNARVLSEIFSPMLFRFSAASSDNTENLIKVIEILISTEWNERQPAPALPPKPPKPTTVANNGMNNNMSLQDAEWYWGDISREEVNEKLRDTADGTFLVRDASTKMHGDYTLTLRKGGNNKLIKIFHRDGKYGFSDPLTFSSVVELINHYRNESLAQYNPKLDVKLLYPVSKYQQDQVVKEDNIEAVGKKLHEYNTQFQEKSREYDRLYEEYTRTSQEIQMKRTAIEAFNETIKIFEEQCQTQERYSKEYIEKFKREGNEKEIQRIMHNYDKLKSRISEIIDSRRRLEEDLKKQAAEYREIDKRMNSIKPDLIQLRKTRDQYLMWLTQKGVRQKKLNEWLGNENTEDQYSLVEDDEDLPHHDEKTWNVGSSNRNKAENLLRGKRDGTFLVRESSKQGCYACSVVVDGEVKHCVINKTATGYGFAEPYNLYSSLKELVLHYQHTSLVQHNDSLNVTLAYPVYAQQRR
Sequence of HDAC3 (O15379 whole entry, species assumed): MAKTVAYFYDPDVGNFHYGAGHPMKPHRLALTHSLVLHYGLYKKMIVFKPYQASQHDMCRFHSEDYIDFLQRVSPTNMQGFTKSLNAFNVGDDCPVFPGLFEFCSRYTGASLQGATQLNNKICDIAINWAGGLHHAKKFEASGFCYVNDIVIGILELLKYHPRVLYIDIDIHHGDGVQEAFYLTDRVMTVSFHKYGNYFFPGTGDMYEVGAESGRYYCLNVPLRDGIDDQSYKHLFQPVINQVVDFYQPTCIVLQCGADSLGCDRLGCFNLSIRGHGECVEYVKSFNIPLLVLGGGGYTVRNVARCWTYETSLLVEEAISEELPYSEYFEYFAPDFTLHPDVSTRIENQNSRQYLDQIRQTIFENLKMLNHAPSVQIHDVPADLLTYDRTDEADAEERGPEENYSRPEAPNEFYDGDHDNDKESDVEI
Sequence of HDAC3 (Q9Y618 395-489 partner limits assumed, species assumed): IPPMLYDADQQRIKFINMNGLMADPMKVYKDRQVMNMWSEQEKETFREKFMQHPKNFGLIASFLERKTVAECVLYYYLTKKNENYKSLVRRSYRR
Sequence of FKBP12 (P62942 whole entry, species assumed): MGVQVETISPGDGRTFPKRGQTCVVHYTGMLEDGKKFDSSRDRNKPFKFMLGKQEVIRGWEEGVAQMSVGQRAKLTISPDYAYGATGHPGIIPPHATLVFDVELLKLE
Sequence of PI3Kγ (p110γ) (P48736 whole entry, species assumed): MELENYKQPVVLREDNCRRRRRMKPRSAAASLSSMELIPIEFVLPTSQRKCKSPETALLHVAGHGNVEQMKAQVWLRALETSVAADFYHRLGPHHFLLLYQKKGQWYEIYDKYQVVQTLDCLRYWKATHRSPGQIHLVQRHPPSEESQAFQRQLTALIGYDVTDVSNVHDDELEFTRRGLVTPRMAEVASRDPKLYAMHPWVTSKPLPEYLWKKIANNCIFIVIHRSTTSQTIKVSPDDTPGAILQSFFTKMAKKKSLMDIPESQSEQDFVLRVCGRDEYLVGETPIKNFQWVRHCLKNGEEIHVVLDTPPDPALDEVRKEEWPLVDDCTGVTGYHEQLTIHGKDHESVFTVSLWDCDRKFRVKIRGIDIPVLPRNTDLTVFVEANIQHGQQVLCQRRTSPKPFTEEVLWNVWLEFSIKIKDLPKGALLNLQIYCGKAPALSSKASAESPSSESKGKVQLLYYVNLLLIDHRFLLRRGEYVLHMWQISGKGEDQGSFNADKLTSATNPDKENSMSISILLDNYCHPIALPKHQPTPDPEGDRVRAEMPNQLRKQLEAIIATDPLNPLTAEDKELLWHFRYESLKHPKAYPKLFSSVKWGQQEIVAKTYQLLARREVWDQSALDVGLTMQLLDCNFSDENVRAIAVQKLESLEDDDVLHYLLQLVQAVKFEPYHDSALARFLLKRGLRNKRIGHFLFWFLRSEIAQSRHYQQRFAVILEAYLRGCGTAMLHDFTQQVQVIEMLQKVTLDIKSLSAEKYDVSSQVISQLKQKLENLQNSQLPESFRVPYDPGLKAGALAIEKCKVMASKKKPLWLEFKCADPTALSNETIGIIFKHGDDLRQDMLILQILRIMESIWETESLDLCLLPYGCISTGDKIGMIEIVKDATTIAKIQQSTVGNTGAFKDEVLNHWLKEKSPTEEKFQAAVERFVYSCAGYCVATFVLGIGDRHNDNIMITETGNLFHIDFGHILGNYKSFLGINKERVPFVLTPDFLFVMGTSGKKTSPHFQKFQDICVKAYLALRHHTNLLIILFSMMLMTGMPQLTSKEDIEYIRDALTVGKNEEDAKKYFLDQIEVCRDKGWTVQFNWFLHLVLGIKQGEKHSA

CCCCc1nc2cc(/C=C/C(=O)NO)ccc2n1CCN(CC)CC [SB939, (E)-3-(2-butyl-1-(2-(diethylamino)ethyl)-1H-benzo[d]imidazol-5-yl)-N-hydioxyacrylamide]
IC50 (HDAC): 40 to 140 nM

CN(C)c1ccc(C(=O)NCCCCCCC(=O)NO)cc1 [M344]
IC50 (HDAC): 100 nM

CO[C@H]1C[C@@H]2CC[C@@H](C)[C@@](O)(O2)C(=O)C(=O)N2CCCC[C@H]2C(=O)O[C@H]([C@H](C)C[C@@H]2CC[C@@H](OCCO)[C@H](OC)C2)CC(=O)[C@H](C)/C=C(\C)[C@@H](O)[C@@H](OC)C(=O)[C@H](C)C[C@H](C)/C=C/C=C/C=C/1C [Everolimus]
IC50 (FKBP12): 1.6 to 2.4 nM

O=C(/C=C/c1ccc(CN(CCO)CCc2c[nH]c3ccccc23)cc1)NO [LAQ824]
IC50 (HDAC): 32 nM

Cc1cc(Cl)ccc1OCCCC(=O)NO [Droxinostat, 4-(4-Chloro-2-methylphenoxy)-N-hydroxybutanamide]
IC50 (HDAC3): 16900 nM

GSK2126458
Ki (PI3Kβ (p110β)): 0.13 nM | Ki (PI3Kγ (p110γ)): 0.024 nM

CO[C@H]1C[C@@H]2CC[C@@H](C)[C@@](O)(O2)C(=O)C(=O)N2CCCC[C@H]2C(=O)O[C@H]([C@H](C)C[C@@H]2CC[C@@H](OC(=O)C(C)(CO)CO)[C@H](OC)C2)CC(=O)[C@H](C)/C=C(\C)[C@@H](O)[C@@H](OC)C(=O)[C@H](C)C[C@H](C)/C=C/C=C/C=C/1C [Temsirolimus]
IC50 (mTOR): 1.76 nM

Cc1[nH]c2ccccc2c1CCNCc1ccc(/C=C/C(=O)NO)cc1 [Panobinostat]
IC50 (Reh cells): 20 nM | IC50 (MOLT-4 cells): 5 nM

CCCC(CCC)C(=O)O [Valproic acid sodium salt]
IC50 (HDAC): 400000 nM

COc1ccc(-c2ccc3ncc4c(c3c2)n(-c2ccc(N3CCNCC3)c(C(F)(F)F)c2)c(=O)n4C)cn1 [NVP-BGT226]
IC50 (PI3K/mTOR): 1 nM

(3S,6S,9S,15aR)-9-((R)-sec-butyl)-6-((1-methoxy-1H-indol-2-yl)methyl)-3-(6-oxooetyl)decahydro-1H-pyrido[1,2-a][1,4,7,10]tetraazacyclododecine-1,4,7,10(12H)-tetraone [Apicidin]
IC50 (HDAC): 0.7 nM

Cc1sc2c(c1C)C(c1ccc(Cl)cc1)=N[C@@H](CC(=O)Nc1ccc(O)cc1)c1nnc(C)n1-2 [compound (1-1), 2-[(6S)-4-(4-chlorophenyl)-2,3,9-trimethyl-6H-thienol[3,2-f]-[1,2,4]triazolo[4,3-a][1,4]diazepin-6-yl]-N-(4-hydroxyphenyl)acetamide dihydrate]
induction of apoptosis ([1]; sensitive cell lines (Example 7)): without induction of apoptosis | cell cycle effect ([1]; sensitive cell lines, time-dependent (Example 7)): cell cycle arrest in G1 | cell cycle effect [1, 8]: increased proportion of cells in cell cycle phase G0/G1 | induction of apoptosis [1, 8]: slight induction of apoptosis | effect in concomitant combination with demethylating agents, HDAC and mTOR inhibitors, glucocorticoids, and conventional cytotoxic drugs [2]: strong synergistic effects | c-MYC mRNA and protein levels (c-MYC [3]; sensitive cell lines (Example 8)): rapid and sustained downregulation | cMYC mRNA and protein levels (c-MYC [3]; sensitive cell lines, 500 nM, after 6-h and up to 72-h treatment): down-regulated | levels of c-MYC RNA (c-MYC [4]; K562, after 4-h and 24-h exposure): decreased levels | cMYC protein levels (c-MYC [4]; K562, even after 72 h of treatment): constant | GI50 [5]: ≥ 1000 nM | BRD2 and BRD4 protein levels (BRD2 and BRD4): without modifying protein levels | mRNA levels of BRD2 and BRD4 (BRD2 and BRD4): up-regulation | GI50 (U937): 230 to 384 nM | GI50 (Jurkat): 230 to 384 nM | GI50 (HL60): 230 to 384 nM

CC(C)[C@H](C(=O)Nc1ccc(C(=O)NO)cc1)c1ccccc1 [AR-42, (S)-N-hydroxy-4-(3-methyl-2-phenylbutanamido)benzamide]
IC50 (HDAC): 30 nM

Cn1c(/C=C/C(=O)NO)ccc1/C=C/C(=O)c1cccc(F)c1 [MC1568]
IC50 (HDAC): 220 nM

COc1ccc(-c2cc3c(C)nc(N)nc3n([C@H]3CC[C@H](OCCO)CC3)c2=O)cn1 [PF-04691502]
IC50 [6]: 3.8 nM | IC50 [7]: 7.5 nM

CCN(CC)Cc1ccc2cc(COC(=O)Nc3ccc(C(=O)NO)cc3)ccc2c1 [ITF2357]
IC50 (HDAC): 7.5 to 16 nM
